{"source": "patent US4513003A", "about": "“Process for protecting wood using N-(dichlorofluoromethylthio)-3,6-endomethylene-Δ^4 -tetrahydrophthalimide” (Bayer Aktiengesellschaft, priority 1981, dated 1985)", "key": {"Escherichia coli": {"test_system": "Escherichia coli", "assay": "action against bacteria, MIC (bouillon agar)", "format": "cell-based", "settings": "336 h", "description": "An agar, containing bouillon as a nutrient medium, is treated with the active agents A and B (Example 2) given in Table II at concentrations from 1 to 5,000 ppm. The nutrient medium is then inoculated with either Escherichia coli or Staphylococcus aureus and the inoculated medium is maintained for 2 weeks at 28° C. and 60 to 70% relative atmospheric humidity. The MIC is the lowest concentration of active agent with which no growth by the type of microbe used ensues."}, "Coniophora cerebella": {"test_system": "Coniophora cerebella", "assay": "minimum inhibitory concentration against fungi (agar)", "format": "cell-based", "settings": "336 h", "description": "(§1) An agar prepared from beer wort and peptone is mixed with the substance according to the invention at concentrations from 0.5 mg/l to 5,000 mg/l.\n(§2) After storage for 2 weeks at 28° C. and 60 to 70% relative atmospheric humidity, the MIC is determined. The MIC is the lowest concentration of active agent with which no growth by the type of microbe used ensues; it is given in the table below."}, "Aspergillus niger": {"test_system": "Aspergillus niger", "assay": "minimum inhibitory concentration against fungi (agar)", "format": "cell-based", "settings": "336 h", "description": "as §1, §2"}, "Penicillium glaucum": {"test_system": "Penicillium glaucum", "assay": "minimum inhibitory concentration against fungi (agar)", "format": "cell-based", "settings": "336 h", "description": "as §1, §2"}, "Pullularia pullulans": {"test_system": "Pullularia pullulans", "assay": "minimum inhibitory concentration against fungi (agar)", "format": "cell-based", "settings": "336 h", "description": "as §1, §2"}, "Trichoderma viride": {"test_system": "Trichoderma viride", "assay": "minimum inhibitory concentration against fungi (agar)", "format": "cell-based", "settings": "336 h", "description": "as §1, §2"}, "Stachybotris atra C.": {"test_system": "Stachybotris atra C.", "assay": "minimum inhibitory concentration against fungi (agar)", "format": "cell-based", "settings": "336 h", "description": "as §1, §2"}, "Penicillium citrinum": {"test_system": "Penicillium citrinum", "assay": "minimum inhibitory concentration against fungi (agar)", "format": "cell-based", "settings": "336 h", "description": "as §1, §2"}, "Cladosporium herbarum": {"test_system": "Cladosporium herbarum", "assay": "minimum inhibitory concentration against fungi (agar)", "format": "cell-based", "settings": "336 h", "description": "as §1, §2"}, "Paecilomyces varioti": {"test_system": "Paecilomyces varioti", "assay": "minimum inhibitory concentration against fungi (agar)", "format": "cell-based", "settings": "336 h", "description": "as §1, §2"}, "Alternaria tenuis": {"test_system": "Alternaria tenuis", "assay": "minimum inhibitory concentration against fungi (agar)", "format": "cell-based", "settings": "Alternaria alternata, 336 h", "description": "as §1, §2"}, "[1]": {"assay": "solubility of substance A compared to substance B", "format": "physicochemical", "description": "Solubility of substance A compared to substance B (g/l at 20° C.): […]"}, "[2]": {"settings": "beer wort/peptone agar, 2 weeks at 28° C., 60 to 70% relative humidity, read-out: MIC"}}, "note": "Where two headings read alike, the source gives them in different places."}
{"smiles": "O=C1C2C3C=CC(C3)C2C(=O)N1SC(F)(Cl)Cl", "note": "(stereo not shown) [A]", "values": [{"measurement": "MIC", "setting": "Escherichia coli; bouillon agar, 2 weeks at 28° C., 60 to 70% relative humidity, read-out: MIC", "result": 200, "unit": "µg/mL"}, {"measurement": "MIC", "setting": "Coniophora cerebella; [2]", "result": "< 1", "unit": "µg/mL"}, {"measurement": "MIC", "setting": "Aspergillus niger; [2]", "result": 200, "unit": "µg/mL"}, {"measurement": "MIC", "setting": "Penicillium glaucum; Penicillium glaucum, beer wort/peptone agar, 2 weeks at 28° C., 60 to 70% relative humidity, read-out: MIC", "result": 10, "unit": "µg/mL"}, {"measurement": "MIC", "setting": "Pullularia pullulans; Pullularia pullulans, beer wort/peptone agar, 2 weeks at 28° C., 60 to 70% relative humidity, read-out: MIC", "result": 5, "unit": "µg/mL"}, {"measurement": "MIC", "setting": "Trichoderma viride; [2]", "result": 200, "unit": "µg/mL"}, {"measurement": "MIC", "setting": "Stachybotris atra C.; Stachybotris atra C., beer wort/peptone agar, 2 weeks at 28° C., 60 to 70% relative humidity, read-out: MIC", "result": 15, "unit": "µg/mL"}, {"measurement": "MIC", "setting": "Penicillium citrinum; [2]", "result": 7, "unit": "µg/mL"}, {"measurement": "MIC", "setting": "Cladosporium herbarum; [2]", "result": 7, "unit": "µg/mL"}, {"measurement": "MIC", "setting": "Paecilomyces varioti; Paecilomyces varioti, beer wort/peptone agar, 2 weeks at 28° C., 60 to 70% relative humidity, read-out: MIC", "result": 10, "unit": "µg/mL"}, {"measurement": "MIC", "setting": "Alternaria tenuis; Alternaria tenuis, beer wort/peptone agar, 2 weeks at 28° C., 60 to 70% relative humidity, read-out: MIC", "result": 10, "unit": "µg/mL"}, {"measurement": "Solubility", "setting": "[1]; Ethyl acetate, 20° C.", "result": 330, "unit": "mg/mL"}, {"measurement": "Solubility", "setting": "[1]; Shellsol AB, 20° C.", "result": 140, "unit": "mg/mL"}, {"measurement": "Solubility", "setting": "[1]; Solvesso 100, 20° C.", "result": 200, "unit": "mg/mL"}, {"measurement": "Solubility", "setting": "[1]; Xylene, 20° C.", "result": 250, "unit": "mg/mL"}, {"measurement": "solubility properties (in words)", "setting": "[1]; particularly when compared to substance B", "result": "very good solubility properties"}]}
{"smiles": "CN(C)S(=O)(=O)N(SC(F)(Cl)Cl)c1ccccc1", "note": "[B]", "values": [{"measurement": "MIC", "setting": "Escherichia coli", "result": 500, "unit": "µg/mL"}, {"measurement": "MIC", "setting": "Coniophora cerebella", "result": 10, "unit": "µg/mL"}, {"measurement": "MIC", "setting": "Aspergillus niger", "result": 50, "unit": "µg/mL"}, {"measurement": "MIC", "setting": "Penicillium glaucum; Penicillium", "result": 35, "unit": "µg/mL"}, {"measurement": "MIC", "setting": "Pullularia pullulans", "result": 20, "unit": "µg/mL"}, {"measurement": "MIC", "setting": "Trichoderma viride", "result": 5000, "unit": "µg/mL"}, {"measurement": "MIC", "setting": "Stachybotris atra C.", "result": 50, "unit": "µg/mL"}, {"measurement": "MIC", "setting": "Penicillium citrinum", "result": 150, "unit": "µg/mL"}, {"measurement": "MIC", "setting": "Cladosporium herbarum", "result": 35, "unit": "µg/mL"}, {"measurement": "MIC", "setting": "Paecilomyces varioti; Paecilomyces", "result": 20, "unit": "µg/mL"}, {"measurement": "MIC", "setting": "Alternaria tenuis", "result": 20, "unit": "µg/mL"}, {"measurement": "Solubility", "setting": "[1]; Ethyl acetate, 20° C.", "result": 117, "unit": "mg/mL"}, {"measurement": "Solubility", "setting": "[1]; Shellsol AB, 20° C.", "result": 60, "unit": "mg/mL"}, {"measurement": "Solubility", "setting": "[1]; Solvesso 100, 20° C.", "result": 75, "unit": "mg/mL"}, {"measurement": "Solubility", "setting": "[1]; Xylene, 20° C.", "result": 65, "unit": "mg/mL"}]}
